Results: PMC10870261, “Photoinduced Hydrogel-Forming Caged Peptides with Improved Solubility” (ACS Omega, 2024)
Blank lines part the entries; values can stand above or below the compound they belong to. Residues, ends and D or L forms follow the SMILES beside them. *: point of attachment. X1 = O=C(COC(=O)*)c1ccc(O)cc1

Assays:
[1] = tested on: A2058 human melanoma cell line; experiment: CellTiterGlo viability assay, cells in 2D monolayer or in peptide hydrogel (3D); format: cell-based; details: HPAA 1 mM, 96 h, normalized to 2D control, n = 3
Description: Human melanoma cell line A2058 was obtained from the European Collection of Authenticated Cell Cultures (ECACC, Salisbury, UK) and was cultured in RPMI 1640 medium supplemented with 10% (v/v %) fetal bovine serum (Biosera Europe, Nuaillé, France), 1% L-glutamine, and 1% penicillin/streptomycin (Gibco, Invitrogen Corporation, New York, USA). Cells were propagated in standard cell culture conditions (37 °C, 5% CO2).
Peptides were dissolved in PBS (1×) at a 1.2 mM concentration. 50–50 μL of the resulting stock solution was added to a 96-well, optical bottom plate. […]
Viability tests were performed using CellTiterGlo (Promega, Madison, WI, USA) reagent to determine the quantity of viable cells in both 2D setups and in hydrogels. […] The luminescence signal was measured by a Fluoroskan FL microplate fluorometer and luminometer (Thermo Scientific, Waltham, MA, USA). […] All quantitative data are presented as the mean ± standard deviation (SD). The results were evaluated with MS Excel and OriginPro 2020 software (OriginLab Corporation, Northampton, MA, USA).
Results were evaluated using MS Excel and OriginPro 2020 software (OriginLab Corp., Northampton, MA, USA). […] Data were statistically analyzed using one-way analysis of variance followed by Tukey’s posthoc test. […]

[2] = Solubility and handling (observation during purification, spectroscopic measurement); format: physicochemical; details: aqueous / PBS, qualitative
Description: To support this change in “behavior” of the caged derivative, spectroscopic (transmittance) measurements were conducted, which confirmed the suppressed aggregation compared to the nonprotected peptide (Figure 1).
Therefore, its purification and characterization could be carried out in the usual way as for peptides (e.g., RP-HPLC and LC–MS).

[3] = tested on: A2058 human melanoma cell line; experiment: Fluorescence microscopy of cellular arrangement in hydrogels (acridine orange); format: cell-based; details: A2058 cells, 96 h, acridine orange 0.1 mM, 10× magnification, Z-stacks
Description: Peptides were dissolved in PBS (1×) at a 1.2 mM concentration. 50–50 μL of the resulting stock solution was added to a 96-well, optical bottom plate. The plate was illuminated with an UV lamp (Sylvania 254 nm, 8 W) for 20 min, followed by the distribution of 50–50 μL of RPMI-1640 medium [supplemented with 10% (v/v %) FBS and 1% L-glutamine, 1% penicillin/streptomycin] into the wells. Then, the plate was incubated for 1 h. For the 3D microscopic imaging of the hydrogels, cells were treated with acridine orange (at 0.1 mM) and incubated for 30 min. Fluorescence measurements were carried out on a Zeiss Celldiscoverer 7 (Zeiss, Jena, Germany) using 10× magnification (Plan-Apochromat λ/0.35 NA objective with 2× tube lens) and acquisition of Z-stacks with 10 μm intervals between individual planes. The images were processed by using ZEN Blue 2.6 software (Carl Zeiss AG, Jena, Germany). Figure 4 (A) Viability of the A2058 human melanoma cell line in native EAK-16-II and caged peptide hydrogels as well as in monolayer (2D) after 96 h. Cell viability was measured using CellTiterGlo assay (Promega, Madison, WI, USA) and normalized to 2D growing cells (control cells) (normalized live cells = 100%). Data are presented as mean values ± standard deviation (SD) from three independent experiments. (B) 3D representation of cellular arrangements in both types of hydrogels. […]

[4] = Optical transmittance (turbidity) in PBS; format: physicochemical; details: 300 μM in PBS (pH 7.4, 1×), 25 °C, 532 nm, after the starting point
Description: Transmittance was measured using an UV–vis spectrophotometer (Jasco V-650, Jasco, Cremella, Italy) in phosphate-buffered saline (PBS, pH 7.4, 1×) buffer.  Figure 1 Optical transmittance of native (nonprotected) EAK16-II peptide and caged-EAK16-II (300 μM) in PBS, 25 °C, 532 nm, 8 h. […] These turbidity measurements were conducted at a 300 μM concentration, which was also used for in vitro experiments.

[5] = cited from earlier work
Description: These turbidity measurements were conducted at a 300 μM concentration, which was also used for in vitro experiments.

Compound: O=C(O)Cc1ccc(O)cc1 [HPAA, p-hydroxyphenylacetic acid]
In vitro cytotoxicity, monolayer (2D) ([1]; A2058 cells in 2D (plastic surface)): did not have any long-term toxic effect | In vitro cytotoxicity, in EAK16-II hydrogel (3D) ([1]; A2058 cells in EAK16-II (300 μM) hydrogel): did not have any long-term toxic effect

Solubility [2]: good solubility
Compound: CC(=O)N[C@@H](C)C(=O)N[C@@H](CCC(=O)O)C(=O)N[C@@H](C)C(=O)N[C@@H](CCC(=O)O)C(=O)N[C@@H](C)C(=O)N[C@@H](CCCCNC(=O)OCC(=O)c1ccc(O)cc1)C(=O)N[C@@H](C)C(=O)N[C@@H](CCCCN)C(=O)N[C@@H](C)C(=O)N[C@@H](CCC(=O)O)C(=O)N[C@@H](C)C(=O)N[C@@H](CCC(=O)O)C(=O)N[C@@H](C)C(=O)N[C@@H](CCCCNC(=O)OCC(=O)c1ccc(O)cc1)C(=O)N[C@@H](C)C(=O)N[C@@H](CCCCN)C(N)=O [caged-EAK16-II] (Ac-AEAEAK(X1)AKAEAEAK(X1)AK-NH2)

Time to "microgelatinization" (sedimentation of peptide aggregates, increase in transmittance) [4]: Around 10 min
Compound: Ac-AEAEAKAKAEAEAKAK-NH2 [EAK16-II]
Cellular arrangement (cellular aggregate formation) in hydrogel [3]: distinct cellular aggregates | Critical aggregating concentration [5]: 0.1 mg/mL
